Structures are written as SMILES.

The subject of assay [1] is interstitial pneumonia model mice induced by bleomycin. Conditions: Non-Patent Document 1; cited from earlier work.
Assay [2] has as its system Human Lung fibroblasts. The experiment in a line: Proliferation of human lung fibroblasts stimulated by EGF (Test Example 1). Conditions: EGF stimulation, 10 μL of a 100 μM solution per well, 48 hours, FIG. 1. Format: cell-based. On the procedure: Human Lung fibroblasts (manufactured by Lonza Walkersville; hereinafter, the same product will be used) were cultured in growth medium, which consisted of basal medium for human lung fibroblasts (manufactured by Lonza Walkersville; hereinafter, the same product will be used and referred to as “basal medium”) with FGM-2 additional factor set (manufactured by Lonza Walkersville; hereinafter, the same product will be used) under the condition of 37° C. and 5% CO2. The human lung fibroblasts were seeded in 96-well plate at 1×10^3 cell/well and incubated overnight in growth medium.
The fibroblasts were washed once with 100 μL of phosphate-buffered saline (manufactured by Nissui Seiyaku; hereinafter, the same product will be used) and 100 μL of basal medium was added thereto followed by incubation for 24 hours. They were further washed with 100 μL of phosphate-buffered saline once and then basal medium was added in an amount of 80 μL/well. Ten μL of a 100 μM solution of the compound A or the compound B was added to each well and incubated for 2 hours. […]
After incubating for 48 hours, absorbance at 490 nm was measured using Cell Titer 96, AQueous Assay (manufactured by Promega) for the analysis of cell proliferation activity. For the measurement of the absorbance, a microplate reader (Benchmark, manufactured by Bio-Rad; hereinafter, the same one will be used) was used.

The subject of assay [3] is Human Lung fibroblasts. The experiment in a line: Proliferation of human lung fibroblasts stimulated by TGF-α (Test Example 2). The settings on record: TGF-α stimulation, 10 μL of a 1 μM solution per well, 48 hours, FIG. 2. Format: cell-based. The procedure: Human lung fibroblasts were incubated in growth medium under the condition of 37° C. and 5% CO2. The human lung fibroblasts were seeded in 96-well plate at 3×10^3 cell/well and incubated overnight in growth medium.
The fibroblasts were washed once with 100 μL of phosphate-buffered saline. Then basal medium was added thereto and incubation was conducted for 24 hours. They were further washed with 100 μL of phosphate-buffered saline once and then basal medium was added in an amount of 80 μL/well. Ten μL of a 1 μM solution of the compound A was added to each well and incubated for 2 hours. The solution used therefor was prepared in such a manner that the compound A was previously dissolved in DMSO and the resulting 1 mM solution was diluted 100-fold with basal medium. For the non-stimulated control group and the control group, DMSO which was diluted 100-fold with the basal medium was used.
Then a 100 ng/mL solution of transforming growth factor-α (TGF-α) (manufactured by Chemicon) was added in an amount of 10 μL to each well and incubated for 48 hours. For a non-stimulated control group, the basal medium was used.
After incubating for 48 hours, absorbance at 490 nm was measured, in the same way as in Test Example 1, using a reagent for the analysis of cell proliferation activity. For the measurement of the absorbance, a microplate reader was used.

Assay [4] deals with Human Lung fibroblasts. The experiment in a line: Collagen production (PIP) in human lung fibroblasts stimulated by TGF β1 (Test Example 3). It counts as cell-based. The settings on record: TGF β1 stimulation, 10 μL of 0.1, 1, 10 or 100 μM solution per well, 48 hours, FIG. 3. The procedure: Human lung fibroblasts were seeded in 96-well plate at 5×10^3 cells/well and incubated in the growth medium in the same way as in Test Example 1 overnight. The fibroblasts were washed once with 100 μL of basal medium and 100 μL of basal medium was added thereto followed by incubating for 24 hours. They were further washed once with 100 μL of basal medium and then 80 μL/well of basal medium was added. A 0.1, 1, 10 or 100 μM solution of the compound A was added in an amount of 10 μL to each well. […] After incubating for 48 hours, the medium was recovered for measuring the concentration of the type I pro-collagen C terminal peptide (PIP) in the medium, and after an addition of 100 μL of the basal medium, the cell proliferation activity was measured using 3-(4,5-dimethyl-2-thiazolyl)-2,5-diphenyl-2H-tetrazolium bromide (MTT) (manufactured by Nacalai Tesque). Measurement of the cell proliferation activity was conducted in such a manner that 10 μL of a 5 mg/mL MTT stock solution was added to each well, and after incubation for 4 hours, 100 μL of a 0.04M isopropanol solution of hydrochloric acid was added to each well, followed by the absorbance measurement at 595 nm (reference wavelength: 655 nm) using a microplate reader. […]

In assay [5] the test system is type I collagen al chain (COL 1α1) mRNA. The assay can be described thus: COL 1α1 mRNA expression in human lung fibroblasts stimulated by TGF β1, real-time quantitative PCR (Test Example 4). It counts as cell-based. Conditions: TGF β1 stimulation, 24 hours, corrected for GAPDH, FIG. 4. The procedure:
(§1) Human lung fibroblasts were seeded in 24-well plate at 1×10^5 cells/well and incubated in growth medium in the same way as in Test Example 1 overnight. The fibroblasts were washed once with 500 μL of basal medium, and added with 500 μL of basal medium followed by incubation for 24 hours. They were further washed once with 500 μL of basal medium and then 400 μL/well of basal medium was added. A 1, 10 or […] of the compound A prepared by the same manner as in Test Example 3 was added in an amount of 50 μL to each well. For the non-stimulated control group and the control group, DMSO which was diluted 100-fold with basal medium was added in an amount of 50 μL. […] Using the cDNA prepared as above as a template, expressed amount of mRNA for type I collagen al chain (COL 1α1), type I collagen α2 chain (COL 1α2), α smooth muscle actin (ACTA), TGF β1 and glyceraldehydes 3-phosphate dehydrogenase (GAPDH) were measured by means of a real-time quantitative PCR method. The real-time quantitative PCR was conducted using Platinum SYBR Green qPCR Super-Mix-UDG with ROX (manufactured by Invitrogen) and a primer being specific to each gene in accordance with the manual attached to the Platinum SYBR Green qPCR Super-Mix-UDG with ROX using ABI PRISM 7000 (Applied Biosystems). […]

In assay [6] the test system is type I collagen α2 chain (COL 1α2) mRNA. The experiment in a line: COL 1α2 mRNA expression in human lung fibroblasts stimulated by TGF β1, real-time quantitative PCR (Test Example 4). It counts as cell-based. Conditions: TGF β1 stimulation, 24 hours, corrected for GAPDH, FIG. 5. The procedure: as §1
In assay [7] the test system is α smooth muscle actin (ACTA) mRNA. The experiment in a line: ACTA mRNA expression in human lung fibroblasts stimulated by TGF β1, real-time quantitative PCR (Test Example 4). Format: cell-based. The settings on record: TGF β1 stimulation, 24 hours, corrected for GAPDH, FIG. 6. The procedure:
as §1

The subject of another assay is TGF β1 mRNA. The assay can be described thus: TGF β1 mRNA expression in human lung fibroblasts stimulated by TGF β1, real-time quantitative PCR (Test Example 4). It counts as cell-based. The settings on record: TGF β1 stimulation, 24 hours, corrected for GAPDH, FIG. 7. On the procedure:
as §1

For assay [8], the system named is Rat renal interstitial cells (NRF 49F cells). The assay can be described thus: Proliferation of rat renal interstitial cells stimulated by PDGF BB, MTT (Test Example 5). It counts as cell-based. Conditions: PDGF BB stimulation, 10 μL of a 100 μM solution per well, 48 hours, FIG. 8. On the procedure: Rat renal interstitial cells (NRF 49F cells) were seeded in 96-well plate at 1×10^4 cells/well and incubated in an Minimum Essential Medium (MEM medium; manufactured by Nippon Seiyaku; hereinafter, the same product will be used) containing 10% of bovine fetal serum (manufactured by JRH Bioscience; hereinafter, the same product will be used) under the condition of 37° C. and 5% CO2 overnight. The cells were washed once with an MEM medium containing no bovine fetal serum (hereinafter, referred to as “serum-free MEM medium”), and 100 μL of the serum-free MEM medium was added thereto followed by incubation for 24 hours. After washing with serum-free MEM medium once, serum-free MEM medium was added in an amount of 80 μL/well. A 100 μM solution of the compound A prepared by the same method as in Test Example 1 was added in an amount of 10 μL to each well. For the non-stimulated control group and the control group, DMSO which was diluted 100-fold with serum-free MEM medium was added in an amount of 10 μL. […] After incubating for 48 hours, cell proliferation activity (absorbance) was measured by an MTT method in the same way as in Test Example 3. The evaluation of this test was carried out using the value (cell proliferation level) expressed as a relative value where a mean value of absorption of the non-stimulating control group was defined as 1.

A further assay deals with Human skin fibroblasts. The assay can be described thus: Collagen production (PIP) in human skin fibroblasts stimulated by TGF β1 (Test Example 6). Format: cell-based. Conditions: TGF β1 stimulation, 10 μL of 0.1, 1, 10 or 100 μM solution per well, 48 hours, FIG. 9. The procedure: Human skin fibroblasts (manufactured by Kurabo; hereinafter, the same product will be used) were seeded in 96-well plate at 5×10^3 cells/well and incubated in a Dulbecco's modified Eagle's medium (DMEM medium; manufactured by Nippon Seiyaku; hereinafter, the same product will be used) containing 10% of bovine fetal serum under the condition of 37° C. and 5% CO2 overnight. The human skin fibroblasts were washed once with an DMEM medium containing no bovine fetal serum (hereinafter, referred to as “serum-free DMEM medium”), and 100 μL of serum-free DMEM medium was added thereto followed by incubation for 24 hours. After washing with serum-free DMEM medium once more, serum-free DMEM medium was added in an amount of 80 μL/well. Ten μL of the 0.1, 1, 10 or 100 μM solution of the compound A prepared by the same method as in Test Example 3 was added to each well. […] After incubating for 48 hours, cell proliferation activity (absorbance) was measured by the MTT method, and PIP concentration in the medium was measured in the same way as in Test Example 3. The evaluation of this test was carried out using the value (index for production of collagen) calculated as a relative value where a mean value in the non-stimulated control group was defined as 1 after correcting the measured value of PIP concentration using the cell proliferation activity value (absorbance).

For the molecule `O=C(O)COc1cccc2c1CCC=C2CCO/N=C(\c1ccccc1)c1cccnc1` [ONO-1301], the “effect for interstitial pneumonia” value in [1] is recorded as “inhibitive effect”.

In the case of `CC(C)N(CCCCOCC(=O)O)c1cnc(-c2ccccc2)c(-c2ccccc2)n1` [compound A, 2-{4-[N-(5,6-diphenyl-pyrazin-2-yl)-N-isopropylamino]butyloxy}acetic acid], the “cell proliferation activity (absorbance at 490 nm) as compared with the control group” value with Human Lung fibroblasts [2] and in the assay with Human Lung fibroblasts [3] was “significantly decreased” each time. In addition, the “collagen production (index for collagen production, PIP corrected for cell proliferation activity) as compared with the control group” value in the assay on Human Lung fibroblasts [4] is listed as “significantly decreased”. Moreover, the “COL 1α1 mRNA expression level as compared with the control group” value in assay [5] is recorded as “decreased”. In addition, the “COL 1α2 mRNA expression level as compared with the control group” value in [6] is “decreased”. Moreover, the “ACTA mRNA expression level as compared with the control group” value in [7] is reported as “decreased”. The “TGF β1 mRNA expression level as compared with the control group” value with TGF β1 mRNA is reported as “decreased”. The “cell proliferation level as compared with the control group” value in assay [8] is on record as “significantly decreased”. In the assay with Human skin fibroblasts, the “production of collagen (index for production of collagen, PIP corrected for cell proliferation activity) as compared with the control group” value is “significantly decreased”.

For the molecule `CC(C)N(CCCCOCC(=O)NS(C)(=O)=O)c1cnc(-c2ccccc2)c(-c2ccccc2)n1` [compound B, 2-{4-[N-(5,6-diphenylpyrazin-2-yl)-N-isopropylamino]butyl-oxy}-N-(methylsulfonyl)acetamide], the “cell proliferation activity (absorbance at 490 nm) as compared with the control group” value in the assay on Human Lung fibroblasts [2] is listed as “significantly decreased”; with Human Lung fibroblasts [3] it was “inhibitive effects”.

(Values after patent publication US20140221397A1, “FIBROSIS INHIBITOR” (Nippon Shinyaku Co., Ltd., priority 2008, published 2014).)
